tested on: HeLa; assay: MTS proliferation assay, HeLa; type: cell-based, human; settings: 72 h incubation, read-out: MTS proliferation assay IC 50 HeLa
Method: (§1) Cell lines are cultured in RPMI-1640 tissue culture medium containing either 5% or 10% fetal calf serum, 0.05 mM 2-mercaptoethanol, 2 mM glutamine and penicillin/streptomycin 50 μg/ml (complete medium) (Sigma, Buchs, Switzerland). General growth conditions are 37° C. and 7.5% CO2.
(§2) The following human cell lines (either EGFP transfected or not) are being used: HeLa (ATCC: CCL-2), KB (ATCC: CCL-17), MCF7 (ATCC: HTB-22), SK-BR-3 (ATCC: HTB-30), SK-Mel 1 (ATCC: HTB-67), SK-Mel 28 (ATCC: HTB-72), PC-3 (ATCC: CRL-1435), SW 480 (ATCC: CCL-228), NCl-H460 (ATCC: HTB-177), NCl-H1792 (ATCC: CRL-5895), HT1080 (ATCC: CCL-21), Jurkat (ATCC: TIB-152), Ramos (ATCC: CRL-1596), Raji (ATCC: CCL-86), H9 (ATCC: HTB-176), Hut78 (ATCC: TIB-161), K562 (ATCC: CCL 243), HL-60 (ATCC: CCL 240), U-87MG (ATCC: HTB-14), HepG2 (ATCC: HB-8065), U-2 OS (ATCC: HTB-96), Saos-2 (ATCC: HTB-85), U937 (ATCC: CRL 1593), Hs 578T (ATCC: HTB 126), HBL-100 (ATCC: HTB 124), Molt-4 (ATCC: CRL 1582).
(§3) The assay is performed in 96 well tissue culture plates. The cells (range: 1.5*10^3-10^4) are seeded out in 80 μl complete medium 24 h prior to compound treatment. The test compounds are added in 20 μl complete medium containing max 5% DMSO. The final compound concentrations in the assays are 10 μM, 3 μM, 1 μM and 0.3 μM, respectively. The assay plates are incubated for 72 h at culture conditions. The MTS reagent is prepared according to the manufacturer's protocol (Promega G1111). 20 μl MTS reagent are added to each well, the assay plates are quickly spun and incubated for another 3 h at culture conditions. Subsequently, the plates are shortly shaked and absorption measured with a microplate-reader at 492 nm.

Compound | IC50
Nc1nonc1-c1nc2ccccc2n1CC(=NO)c1ccc(-c2ccccc2)cc1 (mixture of isomers) [Example 27] | > 1 µM
Cc1cc2nc(-c3nonc3N)n(CC(=O)c3ccc(Br)cc3)c2cc1C [Example 109] | > 1 µM

same assay, conditions: Homo sapiens, 72 h incubation, read-out: MTS proliferation assay IC 50 HeLa

Compound | IC50
Nc1nonc1-c1nc2ccccc2n1CC(=NO)c1ccc(Br)cc1 [Example 2, 4-[1-(4-Bromophenacyl)-1H-benzimidazol-2-yl]-furazan-3-ylamine oxime] | > 1 µM

tested on: MRC5; assay: MTS proliferation assay, MRC5; type: cell-based; settings: Homo sapiens; MRC5, 72 h incubation; read-out: MTS proliferation assay IC 50 MRC5
Method: as §1, §3

Compound | IC50
Nc1nonc1-c1nc2ccccc2n1CC(=NO)c1ccc(Br)cc1 [Example 2, 4-[1-(4-Bromophenacyl)-1H-benzimidazol-2-yl]-furazan-3-ylamine oxime] | > 1 µM

same assay, conditions: MRC5, 72 h incubation; read-out: MTS proliferation assay IC 50 MRC5

Compound | IC50
Nc1nonc1-c1nc2ccccc2n1CC(=NO)c1ccc(-c2ccccc2)cc1 (mixture of isomers) [Example 27] | > 1 µM
Cc1cc2nc(-c3nonc3N)n(CC(=O)c3ccc(Br)cc3)c2cc1C [Example 109] | > 1 µM

tested on: Jurkat; assay: MTS proliferation assay, Jurkat; type: cell-based, human; settings: 72 h incubation, read-out: MTS proliferation assay IC 50 Jurkat
Method: as §1, §2, §3

Compound | IC50
Nc1nonc1-c1nc2ccccc2n1CC(=NO)c1ccc(-c2ccccc2)cc1 (mixture of isomers) [Example 27] | > 1 µM
Cc1cc2nc(-c3nonc3N)n(CC(=O)c3ccc(Br)cc3)c2cc1C [Example 109] | 0.1 to 1 µM

same assay, conditions: Homo sapiens, 72 h incubation, read-out: MTS proliferation assay IC 50 Jurkat

Compound | IC50
Nc1nonc1-c1nc2ccccc2n1CC(=NO)c1ccc(Br)cc1 [Example 2, 4-[1-(4-Bromophenacyl)-1H-benzimidazol-2-yl]-furazan-3-ylamine oxime] | > 1 µM

tested on: adherent cells or suspension cells; assay: Hoechst 33342 nuclear staining (fraction of apoptotic nuclei); type: cell-based; design: key: 0 relating to no activity; 1 relating to weak activity comprising less than 70% of the cells; score 2 relating to strong activity comprising more than 70% of the cells; settings: H460, conc 0.01 μm
Method: as §1
This assay is performed in 96 well tissue culture plates. Appropriate number of cells (adherent cells: 3-5*10^3, suspension cells: 8-10*10^3) are being seeded out in 80 μl complete medium. Adherent cells are incubated for 24 h for proper spreading out before addition of test compounds while suspension cells are immediately treated with test compounds after seeding out. The test compounds are added in 20 μl complete medium containing max 5% DMSO. […] After 24 h or 48 h incubation at culture conditions, 10 μl medium containing Hoechst 33342 dye (Sigma B-2261) at 2-5 μg/ml are added to each well. The assay plates are then further incubated for 30 minutes and subsequently analyzed with a standard inverted fluorescence microscope.
The readout allows the determination of the fraction of apoptotic nuclei as well as other morphological criteria specific for apoptosis as a function of the treatment. The following scores are used: 0 relating to no activity, 1 relating to weak activity comprising less than 70% of the cells and score 2 relating to strong activity comprising more than 70% of the cells.

Compound | Hoechst 33342 nuclear staining score
Nc1nonc1-c1nc2ccccc2n1CC(=NO)c1ccc(Br)cc1 [Example 2, 4-[1-(4-Bromophenacyl)-1H-benzimidazol-2-yl]-furazan-3-ylamine oxime] | 0
Nc1nonc1-c1nc2ccccc2n1CC(=NO)c1ccc(-c2ccccc2)cc1 (mixture of isomers) [Example 27] | 0
Cc1cc2nc(-c3nonc3N)n(CC(=O)c3ccc(Br)cc3)c2cc1C [Example 109] | 0

same assay, conditions: H460, conc 0.1 μm

Compound | Hoechst 33342 nuclear staining score
Nc1nonc1-c1nc2ccccc2n1CC(=NO)c1ccc(Br)cc1 [Example 2, 4-[1-(4-Bromophenacyl)-1H-benzimidazol-2-yl]-furazan-3-ylamine oxime] | 0
Nc1nonc1-c1nc2ccccc2n1CC(=NO)c1ccc(-c2ccccc2)cc1 (mixture of isomers) [Example 27] | 0
Cc1cc2nc(-c3nonc3N)n(CC(=O)c3ccc(Br)cc3)c2cc1C [Example 109] | 0

same assay, conditions: H460, conc 1 μm

Compound | Hoechst 33342 nuclear staining score
Nc1nonc1-c1nc2ccccc2n1CC(=NO)c1ccc(Br)cc1 [Example 2, 4-[1-(4-Bromophenacyl)-1H-benzimidazol-2-yl]-furazan-3-ylamine oxime] | 0
Nc1nonc1-c1nc2ccccc2n1CC(=NO)c1ccc(-c2ccccc2)cc1 (mixture of isomers) [Example 27] | 0
Cc1cc2nc(-c3nonc3N)n(CC(=O)c3ccc(Br)cc3)c2cc1C [Example 109] | 0

same assay, conditions: HeLa, conc 0.01 μm

Compound | Hoechst 33342 nuclear staining score
Nc1nonc1-c1nc2ccccc2n1CC(=NO)c1ccc(Br)cc1 [Example 2, 4-[1-(4-Bromophenacyl)-1H-benzimidazol-2-yl]-furazan-3-ylamine oxime] | 0
Nc1nonc1-c1nc2ccccc2n1CC(=NO)c1ccc(-c2ccccc2)cc1 (mixture of isomers) [Example 27] | 0
Cc1cc2nc(-c3nonc3N)n(CC(=O)c3ccc(Br)cc3)c2cc1C [Example 109] | 0

same assay, conditions: HeLa, conc 0.1 μm

Compound | Hoechst 33342 nuclear staining score
Nc1nonc1-c1nc2ccccc2n1CC(=NO)c1ccc(Br)cc1 [Example 2, 4-[1-(4-Bromophenacyl)-1H-benzimidazol-2-yl]-furazan-3-ylamine oxime] | 0
Nc1nonc1-c1nc2ccccc2n1CC(=NO)c1ccc(-c2ccccc2)cc1 (mixture of isomers) [Example 27] | 0
Cc1cc2nc(-c3nonc3N)n(CC(=O)c3ccc(Br)cc3)c2cc1C [Example 109] | 0

same assay, conditions: HeLa, conc 1 μm

Compound | Hoechst 33342 nuclear staining score
Nc1nonc1-c1nc2ccccc2n1CC(=NO)c1ccc(Br)cc1 [Example 2, 4-[1-(4-Bromophenacyl)-1H-benzimidazol-2-yl]-furazan-3-ylamine oxime] | 0
Nc1nonc1-c1nc2ccccc2n1CC(=NO)c1ccc(-c2ccccc2)cc1 (mixture of isomers) [Example 27] | 0
Cc1cc2nc(-c3nonc3N)n(CC(=O)c3ccc(Br)cc3)c2cc1C [Example 109] | 0

same assay, conditions: Jily, conc 0.01 μm

Compound | Hoechst 33342 nuclear staining score
Cc1cc2nc(-c3nonc3N)n(CC(=O)c3ccc(Br)cc3)c2cc1C [Example 109] | 0

same assay, conditions: Jily, conc 0.1 μm

Compound | Hoechst 33342 nuclear staining score
Cc1cc2nc(-c3nonc3N)n(CC(=O)c3ccc(Br)cc3)c2cc1C [Example 109] | 0

same assay, conditions: Jily, conc 1 μm

Compound | Hoechst 33342 nuclear staining score
Cc1cc2nc(-c3nonc3N)n(CC(=O)c3ccc(Br)cc3)c2cc1C [Example 109] | 0

same assay, conditions: Jurkat, conc 0.01 μm

Compound | Hoechst 33342 nuclear staining score
Nc1nonc1-c1nc2ccccc2n1CC(=NO)c1ccc(Br)cc1 [Example 2, 4-[1-(4-Bromophenacyl)-1H-benzimidazol-2-yl]-furazan-3-ylamine oxime] | 0
Nc1nonc1-c1nc2ccccc2n1CC(=NO)c1ccc(-c2ccccc2)cc1 (mixture of isomers) [Example 27] | 0
Cc1cc2nc(-c3nonc3N)n(CC(=O)c3ccc(Br)cc3)c2cc1C [Example 109] | 0

same assay, conditions: Jurkat, conc 0.1 μm

Compound | Hoechst 33342 nuclear staining score
Nc1nonc1-c1nc2ccccc2n1CC(=NO)c1ccc(Br)cc1 [Example 2, 4-[1-(4-Bromophenacyl)-1H-benzimidazol-2-yl]-furazan-3-ylamine oxime] | 0
Nc1nonc1-c1nc2ccccc2n1CC(=NO)c1ccc(-c2ccccc2)cc1 (mixture of isomers) [Example 27] | 0
Cc1cc2nc(-c3nonc3N)n(CC(=O)c3ccc(Br)cc3)c2cc1C [Example 109] | 0

same assay, conditions: Jurkat, conc 1 μm

Compound | Hoechst 33342 nuclear staining score
Nc1nonc1-c1nc2ccccc2n1CC(=NO)c1ccc(Br)cc1 [Example 2, 4-[1-(4-Bromophenacyl)-1H-benzimidazol-2-yl]-furazan-3-ylamine oxime] | 0
Nc1nonc1-c1nc2ccccc2n1CC(=NO)c1ccc(-c2ccccc2)cc1 (mixture of isomers) [Example 27] | 0
Cc1cc2nc(-c3nonc3N)n(CC(=O)c3ccc(Br)cc3)c2cc1C [Example 109] | 0

same assay, conditions: MRC5, conc 0.01 μm

Compound | Hoechst 33342 nuclear staining score
Nc1nonc1-c1nc2ccccc2n1CC(=NO)c1ccc(Br)cc1 [Example 2, 4-[1-(4-Bromophenacyl)-1H-benzimidazol-2-yl]-furazan-3-ylamine oxime] | 0
Nc1nonc1-c1nc2ccccc2n1CC(=NO)c1ccc(-c2ccccc2)cc1 (mixture of isomers) [Example 27] | 0
Cc1cc2nc(-c3nonc3N)n(CC(=O)c3ccc(Br)cc3)c2cc1C [Example 109] | 0

same assay, conditions: MRC5, conc 0.1 μm

Compound | Hoechst 33342 nuclear staining score
Nc1nonc1-c1nc2ccccc2n1CC(=NO)c1ccc(Br)cc1 [Example 2, 4-[1-(4-Bromophenacyl)-1H-benzimidazol-2-yl]-furazan-3-ylamine oxime] | 0
Nc1nonc1-c1nc2ccccc2n1CC(=NO)c1ccc(-c2ccccc2)cc1 (mixture of isomers) [Example 27] | 0
Cc1cc2nc(-c3nonc3N)n(CC(=O)c3ccc(Br)cc3)c2cc1C [Example 109] | 0

same assay, conditions: MRC5, conc 1 μm

Compound | Hoechst 33342 nuclear staining score
Nc1nonc1-c1nc2ccccc2n1CC(=NO)c1ccc(Br)cc1 [Example 2, 4-[1-(4-Bromophenacyl)-1H-benzimidazol-2-yl]-furazan-3-ylamine oxime] | 0
Nc1nonc1-c1nc2ccccc2n1CC(=NO)c1ccc(-c2ccccc2)cc1 (mixture of isomers) [Example 27] | 0
Cc1cc2nc(-c3nonc3N)n(CC(=O)c3ccc(Br)cc3)c2cc1C [Example 109] | 0

same assay, conditions: PBLs, conc 0.01 μm

Compound | Hoechst 33342 nuclear staining score
Nc1nonc1-c1nc2ccccc2n1CC(=NO)c1ccc(Br)cc1 [Example 2, 4-[1-(4-Bromophenacyl)-1H-benzimidazol-2-yl]-furazan-3-ylamine oxime] | 0
Nc1nonc1-c1nc2ccccc2n1CC(=NO)c1ccc(-c2ccccc2)cc1 (mixture of isomers) [Example 27] | 0
Cc1cc2nc(-c3nonc3N)n(CC(=O)c3ccc(Br)cc3)c2cc1C [Example 109] | 0

same assay, conditions: PBLs, conc 0.1 μm

Compound | Hoechst 33342 nuclear staining score
Nc1nonc1-c1nc2ccccc2n1CC(=NO)c1ccc(Br)cc1 [Example 2, 4-[1-(4-Bromophenacyl)-1H-benzimidazol-2-yl]-furazan-3-ylamine oxime] | 0
Nc1nonc1-c1nc2ccccc2n1CC(=NO)c1ccc(-c2ccccc2)cc1 (mixture of isomers) [Example 27] | 0
Cc1cc2nc(-c3nonc3N)n(CC(=O)c3ccc(Br)cc3)c2cc1C [Example 109] | 0

same assay, conditions: PBLs, conc 1 μm

Compound | Hoechst 33342 nuclear staining score
Nc1nonc1-c1nc2ccccc2n1CC(=NO)c1ccc(Br)cc1 [Example 2, 4-[1-(4-Bromophenacyl)-1H-benzimidazol-2-yl]-furazan-3-ylamine oxime] | 0
Nc1nonc1-c1nc2ccccc2n1CC(=NO)c1ccc(-c2ccccc2)cc1 (mixture of isomers) [Example 27] | 0
Cc1cc2nc(-c3nonc3N)n(CC(=O)c3ccc(Br)cc3)c2cc1C [Example 109] | 0
